In patent US5482967A, “Condensed heterocyclic compounds, their production and use” (Takeda Chemical Industries, Ltd., priority 1992, dated 1996) one finds IC50 data, which are given here for 23 molecules.

The target of this test is substance P receptor (Homo sapiens, UniProt P25103). Description: Radioligand receptor binding inhibitory assay using receptor from human lymphoblast cells (IM-9), 125I-BHSP. The conditions noted are these: IM-9 receptor, 25° C., 30 minutes. On the procedure: The method of A. Margaret et al. [Molecular Pharmacology 42, 458 (1992)] was modified and used. The receptor was prepared from human lymphoblast cells (IM-9). IM-9 cells were grown in 175 cm^2 tissue culture flasks (100 ml×10) at a density approximately 2×10^5 /ml of RPMI 1640 with L-glutamine, 10% (V/V) heat inactivated fetal calf serum, penicillin (100 u/ml), and streptomycin (100 μg/ml) at 37° C. in 5% CO2 /95% air for 3 days. IM-9 cells were obtained by centrifugation at 500×g for 5 minutes at 5° C. The pellet obtained was washed once with phosphate buffer (Flow Laboratories, CAT No. 28-103-05), homogenized using Polytron homogenizer (Kinematika, Germany) in 30 ml of 50 mM Tris-HCl buffer containing 120 mM NaCl, 5 mM KCl, 2 μg/ml phenylmethyl sulfonyl fluoride, and 1 mM ethylenediamine tetra-acetic acid and then centrifuged at 40,000×g for 20 minutes. The residue was washed twice with 30 ml of buffer described above, and preserved frozen (-80° C.).
Sequence of substance P receptor (P25103 whole entry): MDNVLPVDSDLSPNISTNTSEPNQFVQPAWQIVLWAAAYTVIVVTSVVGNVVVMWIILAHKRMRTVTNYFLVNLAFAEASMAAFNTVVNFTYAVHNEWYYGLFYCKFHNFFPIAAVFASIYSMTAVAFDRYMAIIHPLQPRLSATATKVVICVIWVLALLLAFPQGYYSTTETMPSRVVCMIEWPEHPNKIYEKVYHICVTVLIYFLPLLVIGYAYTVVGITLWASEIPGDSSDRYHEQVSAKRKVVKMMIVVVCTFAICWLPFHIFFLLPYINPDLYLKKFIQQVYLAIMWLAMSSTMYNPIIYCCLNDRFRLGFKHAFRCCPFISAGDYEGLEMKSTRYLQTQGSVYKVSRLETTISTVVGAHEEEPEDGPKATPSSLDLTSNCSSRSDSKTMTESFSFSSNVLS
The above specimen was suspended in a reaction buffer (50 mM Tris-HCl buffer (pH 7.4), 0.02% bovine serum albumin, 1 mM phenylmethylsulfonyl fluoride, 2 μg/ml chymostatin, 40 μg/ml bacitracin, 3 mM manganese chloride) at a protein concentration of 1.5 mg/ml and a 100 μl portion of the suspension was used in the reaction. After addition of the sample and 125I-BHSP (0.46 KBq), the reaction was conducted in 0.2 ml of reaction buffer at 25° C. for 30 minutes. The amount of nonspecific binding was determined by adding substance P at a final concentration of 2×10^-6 M. After the reaction, using a cell harvester (290PHD, Cambridge Technology, Inc., England), rapid filtration was carried out through a glass filter (GF/B, Whatman, U.S.A.) to stop the reaction. After washing three times with 250 μl of 50 mM Tris-HCl buffer (pH 7.4) containing 0.02% bovine serum albumin, the radioactivity remaining on the filter was measured with a gamma counter. Before use, the filter was immersed in 0.1% polyethyleneimine for 24 hours and air-dried.
With `CCOC(=O)CCn1c(C(=O)N(C)Cc2cc(C(F)(F)F)cc(C(F)(F)F)c2)c(-c2ccccc2)c2ccccc2c1=O` [Example 180, N-[3,5-Bis(trifluoromethyl)benzyl]-2-(2-ethoxycarbonylethyl)-1,2-dihydro-N-methyl-1-oxo-4-phenyl-3-isoquinolinecarboxamide], the IC50 (as a rule, the concentration that gives 50% inhibition) is 0.0091 µM.
In turn, `CN(Cc1cc(C(F)(F)F)cc(C(F)(F)F)c1)C(=O)c1c(-c2ccccc2)c2ccccc2c(=O)n1C` [Example 157, N-[3,5-Bis(trifluoromethyl)benzyl]-1,2-dihydro-N,2-dimethyl-1-oxo-4-phenyl-3-isoquinolinecarboxamide] came in with an IC50 of 0.0012 µM.
`COc1ccc(CNC(=O)c2c(-c3ccccc3)c3cc(C)c(C)cc3c(=O)n2C)cc1` [Example 109, 1,2-Dihydro-N-(4-methoxybenzyl)-2,6,7-trimethyl-1-oxo-4-phenyl-3-isoquinolinecarboxamide] yielded an IC50 of 0.05 µM.
Take `Cn1c(COCc2cc(C(F)(F)F)cc(C(F)(F)F)c2)c(-c2ccccc2)c2ccccc2c1=O` [Example 211, 3,5-Bis(trifluoromethyl)benzyl 1,2-dihydro-2-methyl-1-oxo-4-phenyl-3-isoquinolinemethyl ether]: the IC50 came out at 0.023 µM.
In turn, `Cc1ccc2c(c1)c(-c1ccccc1Cl)c(C(=O)N(C)Cc1cc(C(F)(F)F)cc(C(F)(F)F)c1)c(=O)n2C` [Example 263, N-[3,5-Bis(trifluoromethyl)benzyl]-4-(2-chlorophenyl)-1,2-dihydro-N,1,6-trimethyl-2-oxo-3-quinolinecarboxamide] showed an IC50 of 0.046 µM.
Turning to `CSc1nc2ccccc2c(-c2ccccc2)c1C(=O)N(C)Cc1cc(C(F)(F)F)cc(C(F)(F)F)c1` [Example 272, N-[3,5-Bis(trifluoromethyl)benzyl]-N-methyl-2-methylthio-4-phenyl-3-quinolinecarboxamide], the 50% inhibitory concentration (IC50) worked out at 0.023 µM.
Consider `COc1ccccc1CNC1CCCn2c1c(-c1ccccc1)c1ccccc1c2=O` (centres unmarked) [Example 239, 1,2,3,4-Tetrahydro-1-(2-methoxybenzylamino)-6-oxo-11-phenyl-6H-benzo[b]quinolizine], for which the 50% inhibitory concentration (IC50) is 0.08 µM.
For `CN(Cc1cc(C(F)(F)F)cc(C(F)(F)F)c1)C(=O)c1nc(Cl)c2ccccc2c1-c1ccc(F)cc1` [Example 273, N-[3,5-Bis(trifluoromethyl)benzyl]-1-chloro-4-(4-fluorophenyl)-N-methyl-3-isoquinolinecarboxamide], the IC50 was 0.002 µM.
The result for `Cc1cccc(C)c1-c1c(C(=O)NCc2cc(C(F)(F)F)cc(C(F)(F)F)c2)n(C)c(=O)c2ccccc12` [Example 122, N-[3,5-Bis(trifluoromethyl)benzyl]-1,2-dihydro-2-methyl-4-(2,6-dimethylphenyl)-1-oxo-3-isoquinolinecarboxamide] reads 0.082 µM; that for `CN(Cc1cc(C(F)(F)F)cc(C(F)(F)F)c1)C(=O)c1c(-c2ccccc2)c2ccccc2oc1=O` [Example 250, N-[3,5-Bis(trifluoromethyl)benzyl]-N-methyl-2-oxo-4-phenyl-2H-1-benzopyran-3-carboxamide], 0.0009 µM; that for `CN(Cc1cc(C(F)(F)F)cc(C(F)(F)F)c1)C(=O)c1cnc2ccc(Cl)cc2c1-c1ccccc1` [Example 264, N-[3,5-Bis(trifluoromethyl)benzyl]-6-chloro-N-methyl-4-phenyl-3-quinolinecarboxamide], 0.016 µM.
For `CN(Cc1cc(C(F)(F)F)cc(C(F)(F)F)c1)C(=O)c1oc(=O)c2ccccc2c1-c1ccc(F)cc1` [Example 246, N-[3,5-Bis(trifluoromethyl)benzyl]-4-(4-fluorophenyl)-N-methyl-1-oxo-1H-2-benzopyran-3-carboxamide], the half-inhibitory concentration (IC50) was 0.00061 µM.
The result for `CN(Cc1cc(C(F)(F)F)cc(C(F)(F)F)c1)C(=O)c1c(-c2ccccc2)c2c(c(=O)n1C)CCCC2` [Example 186, N-[3,5-Bis(trifluoromethyl)benzyl]-1,2,5,6,7,8-hexahydro-N-2-dimethyl-1-oxo-4-phenyl-3-isoquinolinecarboxamide] reads 0.0018 µM; that for `Cn1c(C(=O)NCc2cc(C(F)(F)F)cc(C(F)(F)F)c2)c(-c2ccccc2)c2c(c1=O)CCCC2` [Example 185, N-[3,5-Bis(trifluoromethyl)benzyl]-1,2,5,6,7,8-hexahydro-2-methyl-1-oxo-4-phenyl-3-isoquinolinecarboxamide], 0.032 µM; that for `Cc1ccccc1-c1c(C(=O)N(C)Cc2cc(C(F)(F)F)cc(C(F)(F)F)c2)c(=O)oc2ccccc12` [Example 254, N-[3,5-Bis(trifluoromethyl)benzyl]-N-methyl-4-(2-methylphenyl)-2-oxo-2H-1-benzopyran-3-carboxamide], 0.00036 µM.
On to `Cc1cccc(C)c1-c1c(C(=O)N(C)Cc2cc(C(F)(F)F)cc(C(F)(F)F)c2)n(C)c(=O)c2ccccc12` [Example 123, N-[3,5-Bis(trifluoromethyl)benzyl]-1,2-dihydro-4-(2,6-dimethylphenyl)-N,2-dimethyl-1-oxo-3-isoquinolinecarboxamide], for which the IC50 is 0.046 µM.
Turning to `CCn1c(C(=O)N(C)Cc2cc(C(F)(F)F)cc(C(F)(F)F)c2)c(-c2ccccc2)c2ccccc2c1=O` [Example 189, N-[3,5-Bis(trifluoromethyl)benzyl]-1,2-dihydro-2-ethyl-N-methyl-1-oxo-4-phenyl-3-isoquinolinecarboxamide], the concentration for half-maximal inhibition (IC50) came out at 0.0017 µM.
As to `COc1ccccc1-c1c(C(=O)N(C)Cc2cc(C(F)(F)F)cc(C(F)(F)F)c2)oc(=O)c2ccccc12` [Example 244, N-[3,5-Bis(trifluoromethyl)benzyl]-4-(2-methoxyphenyl)-N-methyl-1-oxo-1H-2-benzopyran-3-carboxamide], the concentration for half-maximal inhibition (IC50) stood at 0.0016 µM.
With `Cc1cc(F)ccc1-c1c(C(=O)NCc2cc(C(F)(F)F)cc(C(F)(F)F)c2)n(C)c(=O)c2ccccc12` [Example 175, N-[3,5-Bis(trifluoromethyl)benzyl]-4-(4-fluoro-2-methylphenyl)-1,2-dihydro-2-methyl-1-oxo-3-isoquinolinecarboxamide], the IC50 came out at 0.0062 µM.
Consider `Cn1c(C(=O)NCc2cc(C(F)(F)F)cc(C(F)(F)F)c2)c(-c2ccccc2)c2cc(Cl)ccc2c1=O` [Example 173, N-[3,5-Bis(trifluoromethyl)benzyl]-6-chloro-1,2-dihydro-2-methyl-1-oxo-4-phenyl-3-isoquinolinecarboxamide], for which the 50% inhibitory concentration (IC50) came out at 0.024 µM.
`O=C1c2c(-c3ccccc3)c3ccccc3c(=O)n2CCN1Cc1cc(C(F)(F)F)cc(C(F)(F)F)c1` [Example 240, N-[3,5-Bis(trifluoromethyl)benzyl]-1,2,3,4-tetrahydro-1,6-dioxo-11-phenyl-6H-pyrazino[1,2-b]isoquinoline] showed an IC50 of 0.002 µM.
Molecule `Cn1c(C(=O)NCc2cc(C(F)(F)F)cc(C(F)(F)F)c2)c(-c2ccccc2C(F)(F)F)c2ccccc2c1=O` [Example 181, N-[3,5-Bis(trifluoromethyl)benzyl]-1,2-dihydro-2-methyl-1-oxo-4-(2-trifluoromethylphenyl)-3-isoquinolinecarboxamide] had an IC50 of 0.031 µM.
The molecule `Cc1ccccc1-c1c(C[S+]([O-])Cc2cc(C(F)(F)F)cc(C(F)(F)F)c2)n(C)c(=O)c2ccccc12` (centres unmarked) [Example 218, 3,5-Bis(trifluoromethyl)benzyl 1,2-dihydro-2-methyl-4-(2-methylphenyl)-1-oxo-3-isoquinolinemethyl sulfoxide] returned an IC50 of 0.023 µM.
